Laboratory results published in patent publication US7972390B2, “Methods for controlling crystal growth, crystallization, structures and phases in materials and systems” (GR Intellectual Reserve, LLC, priority 2003, dated 2011).

Legend:
[1] = Example 8c: sugar solubility in sodium-lamp conditioned vs control water at room temperature; assay type: physicochemical; settings: for Percent sugar by weight: 23.5° C.
Experimental: Source, Greeneville Municipal Water supply, Greeneville, Tenn. […] Length 12″.
One beaker “KK” was placed under a sodium lamp 112 for about three hours, as configured in FIG. 97f, while the other Beaker “IL” functioning as the control was placed in an incubator for about three hours at an internal temperature of about 28° C.
Sugar (about 300 grams) was then added to each beaker and stirred.

[2] = Example 8d: phenyl salicylate solubility in neon-lamp conditioned vs unconditioned acetone at room temperature; assay type: physicochemical; settings: equilibrated about 20 hours
Experimental: Acetone (about 1 ml) was pipetted into small glass test tubes and stoppers placed in the tube. […] Tubes were conditioned under a neon lamp; (about 8 mW/cm^2) in an otherwise dark room for about 1.5 hours at about 28° C. ambient temperature. Tubes were also placed simultaneously in an incubator at about 28° C. for about 1.5 hours.
Phenyl salicylate (about 3.50 grams) was added to each tube leaving a layer undissolved on the bottom of each tube. The solutions were allowed to equilibrate overnight (about 20 hours). Solution was filtered over the crystals and 0.500 ml pipetted into fresh tubes.
After the acetone evaporated, dry weights of phenyl salicylate per ml dissolved in conditioned and unconditioned acetone were determined.

| Percent sugar by weight ([1]; Beaker KK: water under Na lamp three hours) [%] | Percent sugar by weight ([1]; Beaker LL: control water 3 hours in incubator) [%] | More sucrose by weight dissolved by conditioned water than by unconditioned control water ([1]; after three hours exposure of the water to the sodium lamp) | Average amount of phenyl salicylate dissolved ([2]; acetone conditioned under neon lamp about 1.5 hours) [g/mL] | Average amount of phenyl salicylate dissolved ([2]; unconditioned acetone (incubator about 1.5 hours)) [g/mL] | SMILES |
| --- | --- | --- | --- | --- | --- |
| 39.1 | 36.7 | about 2.4% |  |  | OC[C@H]1O[C@@](CO)(O[C@H]2O[C@H](CO)[C@@H](O)[C@H](O)[C@H]2O)[C@@H](O)[C@@H]1O [sucrose, Sucrose] |
|  |  |  | 0.78 | 0.68 | O=C(Oc1ccccc1)c1ccccc1O [phenyl salicylate, Phenyl salicylate] |
